From patent US4486415A, “Cyclic hexapeptide somatostatin analogs” (Merck & Co., Inc., priority 1983, dated 1984)
Square brackets hold non-standard residues; d marks the D form. Peptide text beside a SMILES is read from it. NMeF = CN[C@@H](Cc1ccccc1)C(=O)O; NMeK = CN[C@@H](CCCCN)C(=O)O; dNMeK = CN[C@H](CCCCN)C(=O)O

Legend:
growth hormone = experiment: in vitro test for the inhibition of growth hormone release, cultured rat pituitary cells; type: cell-based; settings: multiples or fractions of the effect of somatostatin (=1), fiducial limits in parentheses, 4 hours incubation
Procedure: The instant cyclic hexapeptide analogs of somatostatin are tested and compared with the effects of somatostatin in an in vitro test for the inhibition of growth hormone. The test is described as follows:
"Rat pituitaries were isolated according to the procedures of Vale and Grant "In vitro Pituitary Hormone Secretion Assay for Hypophysiotropic Substances" in Methods in Enzymology, Vol. XXXVII, eds. O'Malley, B.W. and Hardman, J.G. (Academic Press, Inc., New York) pp. 5-93 (1975).
After 4 days in culture, the cells were washed and incubated for 4 hours in Dulbecco-modified Eagle's medium in the presence or absence of graded doses of each analog or somatostatin. The medium was then collected for subsequent growth hormone determinatin by a double antibody radioimmunoassay for rat growth hormone."

portal vein insulin = experiment: decrease of portal vein insulin in anesthetized rats; type: in vivo, rat; settings: multiples or fractions of the effect of somatostatin (=1), fiducial limits in parentheses, external jugular vein, portal blood after 5 minutes
Procedure: (§1) Analogs of somatostatin were compared to somatostatin in their ability to decrease the levels of portal vein glucagon and insulin in anesthetized rates. Male Sprague-Dawley rats (Charles River CD) weighing 160-200 g were anesthetized with urethane (150 mg/100 g of body weight; Aldrich). Saline or peptides were administered via the external jugular vein. After 5 minutes, the portal vein was exposed, and blood was collected via syringe containing 3 mg of EDTA and placed in chilled tubes containing 100 μl of Trasylol (FBA Pharmaceuticals) for subsequent hormone analysis. Plasma levels of glucagon were determined by the method of Faloona and Unger, Methods of Hormone Radioimmunoassay, Jaffe and Behrman (Eds), Academic Press, New York, Vol. II, pp. 257-527 (1976), utilizing glucagon antisera 30K obtained from R. Unger (Dallas, TX). Plasma levels of insulin were determined by a modification of the procedure of Herbert et al., J. Clin. Endocrinol. Metab., 25, 1375-1384 (1965).

portal vein glucagon = experiment: decrease of portal vein glucagon in anesthetized rats; type: in vivo, rat; settings: multiples or fractions of the effect of somatostatin (=1), fiducial limits in parentheses, external jugular vein, portal blood after 5 minutes
Procedure: as §1

[1] = system: pentagastrin evoked gastric secretion; experiment: inhibition of pentagastrin evoked gastric secretion in the chronic fistula dog; type: in vivo; settings: Dose 0.8 μg/ml./min., infusion 0-60 min., relative to placebo trial; for Gastric Secretion & Inhibition, Acid Concentration 0-30 / Gastric Secretion & Inhibition, Vol. 0-30: 0-30 min; for Gastric Secretion & Inhibition, Acid Concentration 30-60 / Gastric Secretion & Inhibition, Vol. 30-60: 30-60 min; for Gastric Secretion & Inhibition, Acid Concentration 60-90 / Gastric Secretion & Inhibition, Vol. 60-90: 60-90 min; for Gastric Secretion & Inhibition, Acid Concentration 90-120 / Gastric Secretion & Inhibition, Vol. 90-120: 90-120 min
Procedure: The effects of the instant cyclichexapeptide analogs of somatostatin are determined by the following procedure.
Compounds were tested for their ability to inhibit pentagastrin evoked gastric secretion in the chronic fistula dog. Female beagle dogs with a chronic gastric fistula were given pentagastrin (2.5 μg./kg./hour, i.v. from -60 to 120 min.) and gastric outputs were collected via the fistula cannula. Samples were analyzed at 30 minute intervals for volume (Ml.) and titratable acid (mEq/L) (Titration to pH 7 with 0.01N NaOH); total acid output (mEq) was calculated as the production of output volume and acid concentration. Test compounds were infused at a constant rate from 0 to 60 minutes. Data have been expressed as percent change of total acid output relative to a placebo trial in the same animals.

## C[C@@H](O)[C@@H]1NC(=O)[C@H](CCCCN)N(C)C(=O)[C@H](Cc2c[nH]c3ccccc23)NC(=O)[C@H](Cc2ccccc2)NC(=O)[C@@H]2CCCN2C(=O)[C@H](Cc2ccccc2)NC1=O [Cyclo-(Pro-Phe-L-Trp-N-Me-Lys-Thr-Phe)] (cyclo(FPFW[NMeK]T))
Growth hormone
  Growth Hormone Release Inhibition: 0.1(0.09,0.2)
Portal vein insulin
  Insulin Inhibition: 0.3(0.1,0.7)
Portal vein glucagon
  Glucagon Inhibition: 0.2

## C[C@@H](O)[C@@H]1NC(=O)[C@H](CCCCN)NC(=O)[C@@H](Cc2c[nH]c3ccccc23)NC(=O)[C@H](Cc2ccccc2)NC(=O)[C@@H]2CCCN2C(=O)[C@H](Cc2ccccc2)N(C)C1=O [Cyclo(D-Trp-Lys-Thr-N-Me-Phe-Pro-Phe)] (cyclo(F[dW]KT[NMeF]P))
Growth hormone
  Growth Hormone Release Inhibition: 0.53(0.34,0.82)
Portal vein insulin
  Insulin Inhibition: 1.1(0.6,1.7)
Portal vein glucagon
  Glucagon Inhibition: 2.0

## C[C@@H](O)[C@@H]1NC(=O)[C@@H](CCCCN)N(C)C(=O)[C@@H](Cc2c[nH]c3ccccc23)NC(=O)[C@H](Cc2ccccc2)NC(=O)[C@@H]2CCCN2C(=O)[C@H](Cc2ccccc2)NC1=O [Cyclo-(Pro-Phe-D-Trp-N-Me-D-Lys-Thr-Phe)] (cyclo(FPF[dW][dNMeK]T))
Growth hormone
  Growth Hormone Release Inhibition: 1.5(1.2,1.9)
Portal vein insulin
  Insulin Inhibition: 0.4(0.01,1.9)
Portal vein glucagon
  Glucagon Inhibition: 0.4
[1]
  Gastric Secretion & Inhibition, Acid Concentration 0-30: 44%
  Gastric Secretion & Inhibition, Vol. 0-30: 82%
  Gastric Secretion & Inhibition, Acid Concentration 30-60: 51%
  Gastric Secretion & Inhibition, Vol. 30-60: 89%
  Gastric Secretion & Inhibition, Acid Concentration 60-90: 6%
  Gastric Secretion & Inhibition, Vol. 60-90: 49%
  Gastric Secretion & Inhibition, Acid Concentration 90-120: 0%
  Gastric Secretion & Inhibition, Vol. 90-120: 60%

## C[C@@H](O)[C@@H]1NC(=O)[C@@H](CCCCN)N(C)C(=O)[C@H](Cc2c[nH]c3ccccc23)NC(=O)[C@H](Cc2ccccc2)NC(=O)[C@@H]2CCCN2C(=O)[C@H](Cc2ccccc2)NC1=O [Cyclo(Pro--Phe--L-Trp--D-N--Me--Lys--Thr--Phe)] (cyclo(FPFW[dNMeK]T))
Growth hormone
  Growth Hormone Release Inhibition: 0.05(0.04,0.07)
Portal vein insulin
  Insulin Inhibition: 0.07

## C[C@@H](O)[C@@H]1NC(=O)[C@H](CCCCN)N(C)C(=O)[C@@H](Cc2c[nH]c3ccccc23)NC(=O)[C@H](Cc2ccccc2)NC(=O)[C@@H]2CCCN2C(=O)[C@H](Cc2ccccc2)NC1=O [Cyclo(D-Trp-N-Me-Lys-Thr-Phe-Pro-Phe)] (cyclo(FPF[dW][NMeK]T))
Growth hormone
  Growth Hormone Release Inhibition: 1.6(0.7,3.4)
Portal vein insulin
  Insulin Inhibition: 0.5(0.1,1.8)
Portal vein glucagon
  Glucagon Inhibition: Active
[1]
  Gastric Secretion & Inhibition, Acid Concentration 0-30: 9%
  Gastric Secretion & Inhibition, Vol. 0-30: 78%
  Gastric Secretion & Inhibition, Acid Concentration 30-60: 49%
  Gastric Secretion & Inhibition, Vol. 30-60: 82%
  Gastric Secretion & Inhibition, Acid Concentration 60-90: 43%
  Gastric Secretion & Inhibition, Vol. 60-90: 61%
  Gastric Secretion & Inhibition, Acid Concentration 90-120: 32%
  Gastric Secretion & Inhibition, Vol. 90-120: 60%
